Experiments:
MT4 [1] = experiment: Antiviral activity against HIV D545701 in MT4 cells; type: functional, cell-based; conditions: Homo sapiens
MT4 [2] = experiment: Antiviral activity against HIV1 HXB2 in MT4 cells; type: functional, cell-based; conditions: Homo sapiens
MT4 [3] = experiment: Antiviral activity against HIV1 EP13 in MT4 cells; type: functional, cell-based; conditions: Homo sapiens
[4] = Clearance in rat at 1 mg/kg, iv; type: ADME, organism-based; set-up: dose 1 mg/kg, route intravenous; conditions: in vivo
[5] = Half life in rat at 1 mg/kg; type: ADME, organism-based; set-up: dose 1 mg/kg; conditions: in vivo
[6] = Oral bioavailability in rat at 1 mg/kg; type: ADME, organism-based; conditions: in vivo
[7] = Clearance in dog at 1 mg/kg, iv; type: ADME, organism-based, Canis lupus familiaris; set-up: dose 1 mg/kg, route intravenous; conditions: in vivo
[8] = Half life in dog at 1 mg/kg; type: ADME, organism-based, Canis lupus familiaris; set-up: dose 1 mg/kg; conditions: in vivo
[9] = Half life in rat at 1 mg/kg co-administered with 4 mg/kg ritonavir; type: ADME, organism-based; conditions: in vivo
[10] = Half life in dog at 1 mg/kg co-administered with 4 mg/kg ritonavir; type: ADME, organism-based, Canis lupus familiaris; conditions: in vivo
[11] = Oral bioavailability in dog at 1 mg/kg; type: ADME, organism-based, Canis lupus familiaris; conditions: in vivo
[12] = Bioavailability in rat at 1 mg/kg co-administered with 4 mg/kg ritonavir; type: ADME, organism-based; conditions: in vivo
[13] = Bioavailability in dog at 1 mg/kg co-administered with 4 mg/kg ritonavir; type: ADME, organism-based, Canis lupus familiaris; conditions: in vivo
MT4 [14] = experiment: Antiviral activity against amprenavir resistant HIV1 468 in MT4 cells; type: functional, cell-based; conditions: Homo sapiens
MT4 [15] = experiment: Antiviral activity against nelfinavir resistant HIV1 14330 in MT4 cells; type: functional, cell-based; conditions: Homo sapiens
MT4 [16] = experiment: Antiviral activity against indinavir resistant HIV1 30813 in MT4 cells; type: functional, cell-based; conditions: Homo sapiens
MT4 [17] = experiment: Antiviral activity against multi PI resistant HIV1 31246 in MT4 cells; type: functional, cell-based; conditions: Homo sapiens
MT4 [18] = experiment: Antiviral activity against multi PI resistant HIV1 EP14 in MT4 cells; type: functional, cell-based; conditions: Homo sapiens
MT4 [19] = experiment: Antiviral activity against triple multi PI resistant HIV1 in MT4 cells; type: functional, cell-based; conditions: Homo sapiens
MT4 [20] = experiment: Antiviral activity against HIV1 I50V in MT4 cells; type: functional, cell-based; conditions: Homo sapiens
MT4 [21] = experiment: Antiviral activity against HIV1 I54V in MT4 cells; type: functional, cell-based; conditions: Homo sapiens

| SMILES | IC50 (MT4 [1]) [nM] | IC50 (MT4 [2]) [nM] | IC50 (MT4 [3]) [nM] | further results |
| --- | --- | --- | --- | --- |
| CC(C)CN(C[C@@H](O)[C@H](Cc1ccccc1)NC(=O)O[C@H]1CCOC1)S(=O)(=O)c1ccc(N)cc1 | > 1000 |  |  |  |
| COC(=O)NCc1ccc(Oc2ccc(C[C@H](NC(=O)O[C@H]3CO[C@H]4OCC[C@H]43)[C@H](O)CN(CC(C)C)S(=O)(=O)c3ccc4c(c3)OCO4)cc2)cc1 | 6.8 | 1.3 | 2.2 |  |
| CC(C)CN(C[C@@H](O)[C@H](Cc1ccc(OCc2cccc(C#N)c2)cc1)NC(=O)O[C@H]1CO[C@H]2OCC[C@H]21)S(=O)(=O)c1ccc2c(c1)OCO2 | 2.2 | 1.2 | 2.2 |  |
| CC(C)CN(C[C@@H](O)[C@H](Cc1ccc(Oc2ccc(F)cc2)cc1)NC(=O)O[C@H]1CO[C@H]2OCC[C@H]21)S(=O)(=O)c1ccc2c(c1)OCO2 | 29 | 3.3 | 8.1 |  |
| CC(C)CN(C[C@@H](O)[C@H](Cc1ccc(OCc2cncs2)cc1)NC(=O)O[C@H]1CO[C@H]2OCC[C@H]21)S(=O)(=O)c1ccc2c(c1)OCO2 | 6.5 | 1.9 | 2.5 |  |
| CC(=O)NCc1ccc(Oc2ccc(C[C@H](NC(=O)O[C@H]3CO[C@H]4OCC[C@H]43)[C@H](O)CN(CC(C)C)S(=O)(=O)c3ccc4c(c3)OCO4)cc2)cc1 | 6.3 | 6.2 | 3.4 |  |
| COC(=O)N[C@H](C(=O)N[C@@H](Cc1ccccc1)[C@@H](O)CN(Cc1ccc(-c2ccccn2)cc1)NC(=O)[C@@H](NC(=O)OC)C(C)(C)C)C(C)(C)C [ATAZANAVIR] | 70 | 25 | 93 |  |
| CC(C)CN(C[C@@H](O)[C@H](Cc1ccc(OCCc2ccsc2)cc1)NC(=O)O[C@H]1CO[C@H]2OCC[C@H]21)S(=O)(=O)c1ccc2c(c1)OCO2 | 44 | 9.5 | 17 |  |
| CC(C)(C)NC(=O)[C@@H]1C[C@@H]2CCCC[C@@H]2CN1C[C@@H](O)[C@H](Cc1ccccc1)NC(=O)[C@H](CC(N)=O)NC(=O)c1ccc2ccccc2n1 | 603 | 60 | 80 |  |
| CC(C)CN(C[C@@H](O)[C@H](Cc1ccc(Oc2ccc(CNS(C)(=O)=O)cc2)cc1)NC(=O)O[C@H]1CO[C@H]2OCC[C@H]21)S(=O)(=O)c1ccc2c(c1)OCO2 | 11 | 7.2 | 5.3 |  |
| CC(C)CN(C[C@@H](O)[C@H](Cc1ccc(OCc2ccc3ccccc3n2)cc1)NC(=O)O[C@H]1CO[C@H]2OCC[C@H]21)S(=O)(=O)c1ccc2c(c1)OCO2 | 19 | 2.5 | 5.2 |  |
| CC(C)CN(C[C@@H](O)[C@H](Cc1ccc(OCc2ncc[nH]2)cc1)NC(=O)O[C@H]1CO[C@H]2OCC[C@H]21)S(=O)(=O)c1ccc2c(c1)OCO2 | 16 | 69 | 20 |  |
| CC(C)CN(C[C@@H](O)[C@H](Cc1ccc(Oc2ccc(CO)cc2)cc1)NC(=O)O[C@H]1CO[C@H]2OCC[C@H]21)S(=O)(=O)c1ccc2c(c1)OCO2 | 8.4 | 1.6 | 1.6 |  |
| CC(C)CN(C[C@@H](O)[C@H](Cc1ccc(Oc2cccc(F)c2)cc1)NC(=O)O[C@H]1CO[C@H]2OCC[C@H]21)S(=O)(=O)c1ccc2c(c1)OCO2 | 48 | 5.7 | 17 |  |
| COc1cccc(Oc2ccc(C[C@H](NC(=O)O[C@H]3CO[C@H]4OCC[C@H]43)[C@H](O)CN(CC(C)C)S(=O)(=O)c3ccc4c(c3)OCO4)cc2)c1 | 41 | 4.7 | 16 |  |
| CC(C)CN(C[C@@H](O)[C@H](Cc1ccc(Oc2ccccc2)cc1)NC(=O)O[C@H]1CO[C@H]2OCC[C@H]21)S(=O)(=O)c1ccc2c(c1)OCO2 | 62 | 7.5 | 21 |  |
| CC(C)CN(C[C@@H](O)[C@H](Cc1ccccc1)NC(=O)O[C@H]1CO[C@H]2OCC[C@H]21)S(=O)(=O)c1ccc(N)cc1 | 32 | 3.9 | 6.8 |  |

| SMILES | IC50 (MT4 [1]) [nM] | IC50 (MT4 [2]) [nM] | IC50 (MT4 [3]) [nM] | further results |
| --- | --- | --- | --- | --- |
| Cc1c(O)cccc1C(=O)N[C@@H](CSc1ccccc1)[C@H](O)CN1C[C@H]2CCCC[C@H]2C[C@H]1C(=O)NC(C)(C)C | > 1000 |  |  |  |
| CC(C)CN(C[C@@H](O)[C@H](Cc1ccc(OCc2ccccn2)cc1)NC(=O)O[C@H]1CO[C@H]2OCC[C@H]21)S(=O)(=O)c1ccc2c(c1)OCO2 | 4.5 | 1.2 | 1.2 | clearance [4]: 20 mL/min/kg; half-life [5]: 0.91 h; bioavailability [6]: 21% |
| Cc1nc(COc2ccc(C[C@H](NC(=O)O[C@H]3CO[C@H]4OCC[C@H]43)[C@H](O)CN(CC(C)C)S(=O)(=O)c3ccc4c(c3)OCO4)cc2)cs1 [BRECANAVIR] |  |  | 1.1 | clearance [4]: 10 mL/min/kg; clearance [7]: 19 mL/min/kg; half-life [5]: 1.4 h; bioavailability [6]: 10%; half-life [8]: 0.87 h; half-life [9]: 1.1 h; half-life [10]: 1.2 h; bioavailability [11]: 20%; bioavailability [12]: 62%; bioavailability [13]: 86%; IC50 (MT4 [14]): 8.2 nM; IC50 (MT4 [15]): 0.45 nM; IC50 (MT4 [16]): 0.46 nM; IC50 (MT4 [17]): 1.7 nM; IC50 (MT4 [18]): 0.77 nM; IC50 (MT4 [19]): 5.4 nM; IC50 (MT4 [20]): 1.6 nM; IC50 (MT4 [21]): 0.22 nM |
| CC(C)CN(C[C@@H](O)[C@H](Cc1ccc(OCCc2ccccc2)cc1)NC(=O)O[C@H]1CO[C@H]2OCC[C@H]21)S(=O)(=O)c1ccc2c(c1)OCO2 | 25 | 3.7 | 8.7 |  |
| CC(C)c1nc(CN(C)C(=O)N[C@H](C(=O)N[C@@H](Cc2ccccc2)C[C@H](O)[C@H](Cc2ccccc2)NC(=O)OCc2cncs2)C(C)C)cs1 [RITONAVIR] | > 1000 | 268 | > 1000 |  |
| CC(C)CN(C[C@@H](O)[C@H](Cc1ccc(OCCn2cncn2)cc1)NC(=O)O[C@H]1CO[C@H]2OCC[C@H]21)S(=O)(=O)c1ccc2c(c1)OCO2 | 12 | 21 | 8.3 |  |
| CC(C)CN(C[C@@H](O)[C@H](Cc1ccc(OCc2nccs2)cc1)NC(=O)O[C@H]1CO[C@H]2OCC[C@H]21)S(=O)(=O)c1ccc2c(c1)OCO2 | 5.1 | 0.9 | 1.5 |  |
| CC(C)CN(C[C@@H](O)[C@H](Cc1ccc(OCc2cscn2)cc1)NC(=O)O[C@H]1CO[C@H]2OCC[C@H]21)S(=O)(=O)c1ccc2c(c1)OCO2 | 3.5 | 0.6 | 1.2 |  |
| CC(C)CN(C[C@@H](O)[C@H](Cc1ccc(OCc2ccccc2)cc1)NC(=O)O[C@H]1CO[C@H]2OCC[C@H]21)S(=O)(=O)c1ccc2c(c1)OCO2 | 9.6 | 3.1 | 5.9 |  |
| CC(C)CN(C[C@@H](O)[C@H](Cc1ccc(Oc2ccc(CN3CCOCC3)cc2)cc1)NC(=O)O[C@H]1CO[C@H]2OCC[C@H]21)S(=O)(=O)c1ccc2c(c1)OCO2 | 13 | 1.2 | 2.9 |  |
| CC(C)CN(C[C@@H](O)[C@H](Cc1ccc(OCCc2cccs2)cc1)NC(=O)O[C@H]1CO[C@H]2OCC[C@H]21)S(=O)(=O)c1ccc2c(c1)OCO2 | 11 | 2.3 | 3.4 | clearance [4]: 27 mL/min/kg; clearance [7]: 22 mL/min/kg; half-life [5]: 2.2 h; bioavailability [6]: 15%; half-life [8]: 0.5 h; bioavailability [11]: 18% |
| Cc1cccc(C)c1OCC(=O)N[C@@H](Cc1ccccc1)[C@@H](O)C[C@H](Cc1ccccc1)NC(=O)[C@H](C(C)C)N1CCCNC1=O [LOPINAVIR] | > 1000 | 40 | 400 |  |
| CC(C)CN(C[C@@H](O)[C@H](Cc1ccc(Oc2ccc(CN3CCCC3)cc2)cc1)NC(=O)O[C@H]1CO[C@H]2OCC[C@H]21)S(=O)(=O)c1ccc2c(c1)OCO2 | 19 | 2.8 | 4.6 |  |
| CC(C)CN(C[C@@H](O)[C@H](Cc1ccc(Oc2ccncn2)cc1)NC(=O)O[C@H]1CO[C@H]2OCC[C@H]21)S(=O)(=O)c1ccc2c(c1)OCO2 | 11 | 2 | 2.8 |  |
| COc1ccc(Oc2ccc(C[C@H](NC(=O)O[C@H]3CO[C@H]4OCC[C@H]43)[C@H](O)CN(CC(C)C)S(=O)(=O)c3ccc4c(c3)OCO4)cc2)cc1 | 27 | 2.1 | 6.9 |  |
| CC(C)CN(C[C@@H](O)[C@H](Cc1ccc(Oc2cccnc2)cc1)NC(=O)O[C@H]1CO[C@H]2OCC[C@H]21)S(=O)(=O)c1ccc2c(c1)OCO2 | 9.5 | 1.1 | 2.4 |  |
| CC(C)CN(C[C@@H](O)[C@H](Cc1ccc(OCc2ccc3ccccc3c2)cc1)NC(=O)O[C@H]1CO[C@H]2OCC[C@H]21)S(=O)(=O)c1ccc2c(c1)OCO2 | 59 | 11 | 30 |  |

— ChEMBL document CHEMBL1146125, “Ultra-potent P1 modified arylsulfonamide HIV protease inhibitors: the discovery of GW0385” (Bioorg Med Chem Lett, 2006)
